In PMC4286029 (Inflammation Research, 2014):

Legend:
[1] = target: T1, Fyn (Homo sapiens, UniProt P06241); assay: KinaseProfiler selectivity: Fyn; type: biochemical
T1 construct: purchased Millipore Co. Ltd. (KinaseProfiler service)
Method: (§1) […]; The selectivity of JTE-052 for other kinases was assessed using KinaseProfiler™ (Millipore Co. Ltd.). […].

[2] = target: T2, PKA (Homo sapiens, UniProt P17612); assay: KinaseProfiler selectivity: PKA; type: biochemical
T2 construct: purchased Millipore Co. Ltd. (KinaseProfiler service)
Method: as §1

[3] = target: T3, JNK3 (Homo sapiens, UniProt P53779); assay: KinaseProfiler selectivity: JNK3; type: biochemical
T3 construct: purchased Millipore Co. Ltd. (KinaseProfiler service)
Method: as §1

[4] = target: T4, PDGFRα (Homo sapiens, UniProt P16234); assay: KinaseProfiler selectivity: PDGFRα; type: biochemical
T4 construct: purchased Millipore Co. Ltd. (KinaseProfiler service)
Method: as §1

[5] = target: T5, PKBα (Homo sapiens, UniProt P31749); assay: KinaseProfiler selectivity: PKBα; type: biochemical
T5 construct: purchased Millipore Co. Ltd. (KinaseProfiler service)
Method: as §1

[6] = target: T6, EGFR (Homo sapiens, UniProt P00533); assay: KinaseProfiler selectivity: EGFR; type: biochemical
T6 construct: purchased Millipore Co. Ltd. (KinaseProfiler service)
Method: as §1

[7] = system: kinases in KinaseProfiler; assay: KinaseProfiler panel as a whole (selectivity for other kinases); type: biochemical; conditions: concentration of 1,000 nM
Method: as §1

[8] = target: T7, PKCζ (Homo sapiens, UniProt Q05513); assay: KinaseProfiler selectivity: PKCζ; type: biochemical
T7 construct: purchased Millipore Co. Ltd. (KinaseProfiler service)
Method: as §1

[9] = target: T8, Flt1 (Homo sapiens, UniProt P17948); assay: KinaseProfiler selectivity: Flt1; type: biochemical
T8 construct: purchased Millipore Co. Ltd. (KinaseProfiler service)
Method: as §1

[10] = target: T9, GSK3β (Homo sapiens, UniProt P49841); assay: KinaseProfiler selectivity: GSK3β; type: biochemical
T9 construct: purchased Millipore Co. Ltd. (KinaseProfiler service)
Method: as §1

[11] = target: T10, Aurora-A (Homo sapiens, UniProt O14965); assay: KinaseProfiler selectivity: Aurora-A; type: biochemical
T10 construct: purchased Millipore Co. Ltd. (KinaseProfiler service)
Method: as §1

[12] = target: T11, CDK1/cyclinB (Homo sapiens, UniProt P06493); assay: KinaseProfiler selectivity: CDK1/cyclinB; type: biochemical
T11 construct: purchased Millipore Co. Ltd. (KinaseProfiler service)
Method: as §1

[13] = target: T12, Tie2 (Homo sapiens, UniProt Q02763); assay: KinaseProfiler selectivity: Tie2; type: biochemical
T12 construct: purchased Millipore Co. Ltd. (KinaseProfiler service)
Method: as §1

[14] = system: human monocytes; assay: GM-CSF-induced TNF-α production from monocytes (ELISA); conditions: Monocyte, read-out: IC50, GM-CSF enhancement of TNF-α production upon LPS stimulation in monocytes
Method: The cells were then cultured with 0.1 ng/mL lipopolysaccharide (LPS) for an additional 6 h at 37 °C. The supernatants were collected, and secretion of TNF-α was measured by ELISA.

[15] = target: T13, Lck (Homo sapiens, UniProt P06239); assay: KinaseProfiler selectivity: Lck; type: biochemical
T13 construct: purchased Millipore Co. Ltd. (KinaseProfiler service)
Method: as §1

[16] = target: T14, PKCβI (Homo sapiens, UniProt P05771); assay: KinaseProfiler selectivity: PKCβI; type: biochemical
T14 construct: purchased Millipore Co. Ltd. (KinaseProfiler service)
Method: as §1

[17] = target: T15, JNK2α2 (Homo sapiens, UniProt P45984); assay: KinaseProfiler selectivity: JNK2α2; type: biochemical
T15 construct: purchased Millipore Co. Ltd. (KinaseProfiler service)
Method: as §1

[18] = target: T16, IGF-1R (Homo sapiens, UniProt P08069); assay: KinaseProfiler selectivity: IGF-1R; type: biochemical
T16 construct: purchased Millipore Co. Ltd. (KinaseProfiler service)
Method: as §1

[19] = target: T17, PDGFRβ (Homo sapiens, UniProt P09619); assay: KinaseProfiler selectivity: PDGFRβ; type: biochemical
T17 construct: purchased Millipore Co. Ltd. (KinaseProfiler service)
Method: as §1

[20] = target: T18, cSRC (Homo sapiens, UniProt P12931); assay: KinaseProfiler selectivity: cSRC; type: biochemical
T18 construct: purchased Millipore Co. Ltd. (KinaseProfiler service)
Method: as §1

[21] = target: T19, Abl (Homo sapiens, UniProt P00519); assay: KinaseProfiler selectivity: Abl; type: biochemical
T19 construct: purchased Millipore Co. Ltd. (KinaseProfiler service)
Method: as §1

[22] = target: T20, Syk (Homo sapiens, UniProt P43405); assay: KinaseProfiler selectivity: Syk; type: biochemical
T20 construct: purchased Millipore Co. Ltd. (KinaseProfiler service)
Method: as §1

[23] = target: T21, ROCK-II (Homo sapiens, UniProt O75116); assay: KinaseProfiler selectivity: ROCK-II; type: biochemical
T21 construct: purchased Millipore Co. Ltd. (KinaseProfiler service)
Method: as §1

[24] = target: T22, PDK1 (Homo sapiens, UniProt O15530); assay: KinaseProfiler selectivity: PDK1; type: biochemical
T22 construct: purchased Millipore Co. Ltd. (KinaseProfiler service)
Method: as §1

[25] = system: IL-2-induced IFN-γ production; assay: IL-2-induced IFN-γ production in mice; type: in vivo, DBA/1J mice; conditions: Mus musculus, po
Method: DBA/1J mice were dosed once via oral gavage with compounds. At 1 or 6 h after compound administration, the mice were injected intraperitoneally with 2 μg of recombinant mouse IL-2 and 10 μg of biotinylated anti-mouse IFN-γ capture antibody. After 6 h, the mice were euthanized, and blood was collected. Serum IFN-γ was quantified using a Mouse IFN-γ In Vivo Capture Assay Set (BD Biosciences).
After 1 or 6 h, they were injected with IL-2 and anti-mouse IFN-γ capture antibody. At 6 h after the injection, blood samples were collected, and the serum IFN-γ levels were measured.

[26] = target: T23, CK2 (Homo sapiens, UniProt P68400); assay: KinaseProfiler selectivity: CK2; type: biochemical
T23 construct: purchased Millipore Co. Ltd. (KinaseProfiler service)
Method: as §1

[27] = target: T24, SAPK3 (Homo sapiens, UniProt P53778); assay: KinaseProfiler selectivity: SAPK3; type: biochemical
T24 construct: purchased Millipore Co. Ltd. (KinaseProfiler service)
Method: as §1

[28] = target: T25, PKCα (Homo sapiens, UniProt P17252); assay: KinaseProfiler selectivity: PKCα; type: biochemical
T25 construct: purchased Millipore Co. Ltd. (KinaseProfiler service)
Method: as §1

[29] = target: T26, CHK1 (Homo sapiens, UniProt O14757); assay: KinaseProfiler selectivity: CHK1; type: biochemical
T26 construct: purchased Millipore Co. Ltd. (KinaseProfiler service)
Method: as §1

[30] = target: T27, SGK (Homo sapiens, UniProt O00141); assay: KinaseProfiler selectivity: SGK; type: biochemical
T27 construct: purchased Millipore Co. Ltd. (KinaseProfiler service)
Method: as §1

[31] = system: human mast cells; conditions: Mast cell, read-out: IC50, IL-4 priming of Fcε receptor-dependent TNF-α production in mast cells
Method: The cells were then replated at 1.2 × 10^5 cells/well and cultured with 1 μg/mL anti-IgE for an additional 5 h at 37 °C. The supernatants were collected, and secretion of TNF-α was measured by ELISA.

[32] = target: T28, Lyn (Homo sapiens, UniProt P07948); assay: KinaseProfiler selectivity: Lyn; type: biochemical
T28 construct: purchased Millipore Co. Ltd. (KinaseProfiler service)
Method: as §1

[33] = target: T29, IKKβ (Homo sapiens, UniProt O14920); assay: KinaseProfiler selectivity: IKKβ; type: biochemical
T29 construct: purchased Millipore Co. Ltd. (KinaseProfiler service)
Method: as §1

[34] = target: T30, c-RAF (Homo sapiens, UniProt P04049); assay: KinaseProfiler selectivity: c-RAF; type: biochemical
T30 construct: purchased Millipore Co. Ltd. (KinaseProfiler service)
Method: as §1

[35] = Cytotoxicity: fibroblast (NHLF) proliferation ([3H]thymidine); conditions: human, normal human lung fibroblasts (NHLF)
Method: For determination of cytotoxicity, fibroblast proliferation was measured.

[36] = target: T31, CSK (Homo sapiens, UniProt P41240); assay: KinaseProfiler selectivity: CSK; type: biochemical
T31 construct: purchased Millipore Co. Ltd. (KinaseProfiler service)
Method: as §1

[37] = target: T32, JNK1α1 (Homo sapiens, UniProt P45983); assay: KinaseProfiler selectivity: JNK1α1; type: biochemical
T32 construct: purchased Millipore Co. Ltd. (KinaseProfiler service)
Method: as §1

[38] = target: T33, FGFR3 (Homo sapiens, UniProt P22607); assay: KinaseProfiler selectivity: FGFR3; type: biochemical
T33 construct: purchased Millipore Co. Ltd. (KinaseProfiler service)
Method: as §1

[39] = target: T34, KDR (Homo sapiens, UniProt P35968); assay: KinaseProfiler selectivity: KDR; type: biochemical
T34 construct: purchased Millipore Co. Ltd. (KinaseProfiler service)
Method: as §1

T12 sequence (Q02763 23-1124): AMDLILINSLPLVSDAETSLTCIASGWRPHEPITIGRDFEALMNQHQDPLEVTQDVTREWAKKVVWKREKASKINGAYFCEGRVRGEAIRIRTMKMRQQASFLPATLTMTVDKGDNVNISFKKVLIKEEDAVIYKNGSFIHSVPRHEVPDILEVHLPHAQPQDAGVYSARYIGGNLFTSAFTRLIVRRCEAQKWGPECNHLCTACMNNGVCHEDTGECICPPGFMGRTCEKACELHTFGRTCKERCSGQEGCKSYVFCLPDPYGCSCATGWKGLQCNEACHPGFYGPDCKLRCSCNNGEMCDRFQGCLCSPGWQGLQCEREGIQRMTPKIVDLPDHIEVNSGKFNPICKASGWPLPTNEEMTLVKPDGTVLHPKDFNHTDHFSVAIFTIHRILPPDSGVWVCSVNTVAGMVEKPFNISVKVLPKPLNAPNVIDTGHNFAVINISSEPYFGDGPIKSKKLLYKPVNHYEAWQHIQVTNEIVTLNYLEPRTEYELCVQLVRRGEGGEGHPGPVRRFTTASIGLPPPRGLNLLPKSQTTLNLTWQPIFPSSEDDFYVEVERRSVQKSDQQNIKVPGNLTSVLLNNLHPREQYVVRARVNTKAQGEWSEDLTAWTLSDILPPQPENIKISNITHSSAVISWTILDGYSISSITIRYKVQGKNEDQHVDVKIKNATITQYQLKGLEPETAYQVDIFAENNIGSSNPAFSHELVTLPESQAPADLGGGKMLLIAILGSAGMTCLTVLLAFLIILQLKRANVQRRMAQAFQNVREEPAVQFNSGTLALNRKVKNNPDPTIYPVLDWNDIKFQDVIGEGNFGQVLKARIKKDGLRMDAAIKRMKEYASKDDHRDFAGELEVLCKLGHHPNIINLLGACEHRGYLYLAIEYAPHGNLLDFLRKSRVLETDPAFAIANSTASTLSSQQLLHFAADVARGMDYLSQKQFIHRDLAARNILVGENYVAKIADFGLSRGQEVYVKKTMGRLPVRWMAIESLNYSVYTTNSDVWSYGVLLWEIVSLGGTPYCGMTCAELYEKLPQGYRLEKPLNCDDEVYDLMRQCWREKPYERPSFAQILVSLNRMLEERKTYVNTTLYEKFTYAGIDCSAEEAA
T33 sequence (P22607 23-806, species assumed): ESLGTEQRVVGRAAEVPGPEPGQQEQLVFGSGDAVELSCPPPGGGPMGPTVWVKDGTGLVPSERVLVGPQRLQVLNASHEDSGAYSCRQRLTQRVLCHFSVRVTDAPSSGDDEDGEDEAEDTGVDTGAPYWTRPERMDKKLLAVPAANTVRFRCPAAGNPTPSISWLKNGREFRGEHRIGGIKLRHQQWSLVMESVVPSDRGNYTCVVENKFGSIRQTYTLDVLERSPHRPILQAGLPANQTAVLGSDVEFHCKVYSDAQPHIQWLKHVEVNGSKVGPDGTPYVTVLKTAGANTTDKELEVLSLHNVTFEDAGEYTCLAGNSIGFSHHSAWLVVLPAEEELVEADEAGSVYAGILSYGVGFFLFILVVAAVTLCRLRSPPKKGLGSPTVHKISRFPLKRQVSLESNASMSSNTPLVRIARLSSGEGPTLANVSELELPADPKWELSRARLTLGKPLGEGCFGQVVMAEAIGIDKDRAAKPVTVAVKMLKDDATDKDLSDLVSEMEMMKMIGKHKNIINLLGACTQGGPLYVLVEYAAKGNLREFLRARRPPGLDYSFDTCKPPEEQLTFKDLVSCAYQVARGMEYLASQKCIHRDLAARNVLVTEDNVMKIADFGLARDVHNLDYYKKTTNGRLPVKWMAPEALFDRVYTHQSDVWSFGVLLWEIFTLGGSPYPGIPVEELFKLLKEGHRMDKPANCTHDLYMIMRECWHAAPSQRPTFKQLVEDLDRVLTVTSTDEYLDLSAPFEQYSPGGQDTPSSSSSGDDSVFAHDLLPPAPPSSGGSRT
T19 sequence (P00519 whole entry, species assumed): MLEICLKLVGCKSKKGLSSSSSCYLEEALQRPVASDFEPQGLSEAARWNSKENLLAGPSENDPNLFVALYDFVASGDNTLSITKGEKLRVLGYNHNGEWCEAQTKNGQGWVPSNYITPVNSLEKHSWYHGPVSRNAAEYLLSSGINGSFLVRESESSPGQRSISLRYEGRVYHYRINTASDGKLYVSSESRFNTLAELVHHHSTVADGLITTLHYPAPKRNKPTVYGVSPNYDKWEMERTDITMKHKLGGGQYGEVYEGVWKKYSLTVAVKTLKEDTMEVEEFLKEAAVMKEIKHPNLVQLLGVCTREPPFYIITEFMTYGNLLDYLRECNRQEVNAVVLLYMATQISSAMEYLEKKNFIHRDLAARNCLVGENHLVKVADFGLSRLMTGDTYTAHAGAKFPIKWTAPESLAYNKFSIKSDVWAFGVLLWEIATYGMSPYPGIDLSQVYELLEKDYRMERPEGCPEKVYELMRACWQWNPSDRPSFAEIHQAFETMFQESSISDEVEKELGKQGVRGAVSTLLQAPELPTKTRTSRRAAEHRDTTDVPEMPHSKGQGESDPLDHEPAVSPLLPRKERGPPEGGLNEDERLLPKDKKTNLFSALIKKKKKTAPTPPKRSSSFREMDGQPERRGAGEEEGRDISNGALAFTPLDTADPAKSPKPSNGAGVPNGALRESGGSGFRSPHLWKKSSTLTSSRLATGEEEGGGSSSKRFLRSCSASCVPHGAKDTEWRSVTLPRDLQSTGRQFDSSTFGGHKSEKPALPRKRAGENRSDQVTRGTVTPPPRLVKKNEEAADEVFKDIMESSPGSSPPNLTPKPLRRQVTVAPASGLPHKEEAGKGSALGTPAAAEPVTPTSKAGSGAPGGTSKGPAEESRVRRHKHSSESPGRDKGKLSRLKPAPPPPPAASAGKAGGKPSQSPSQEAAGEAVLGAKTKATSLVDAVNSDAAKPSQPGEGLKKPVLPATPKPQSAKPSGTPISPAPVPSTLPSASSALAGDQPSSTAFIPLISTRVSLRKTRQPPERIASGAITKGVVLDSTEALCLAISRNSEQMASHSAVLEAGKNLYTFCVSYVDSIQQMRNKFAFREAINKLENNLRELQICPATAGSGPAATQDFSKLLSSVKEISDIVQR
T6 sequence (P00533 25-1210, species assumed): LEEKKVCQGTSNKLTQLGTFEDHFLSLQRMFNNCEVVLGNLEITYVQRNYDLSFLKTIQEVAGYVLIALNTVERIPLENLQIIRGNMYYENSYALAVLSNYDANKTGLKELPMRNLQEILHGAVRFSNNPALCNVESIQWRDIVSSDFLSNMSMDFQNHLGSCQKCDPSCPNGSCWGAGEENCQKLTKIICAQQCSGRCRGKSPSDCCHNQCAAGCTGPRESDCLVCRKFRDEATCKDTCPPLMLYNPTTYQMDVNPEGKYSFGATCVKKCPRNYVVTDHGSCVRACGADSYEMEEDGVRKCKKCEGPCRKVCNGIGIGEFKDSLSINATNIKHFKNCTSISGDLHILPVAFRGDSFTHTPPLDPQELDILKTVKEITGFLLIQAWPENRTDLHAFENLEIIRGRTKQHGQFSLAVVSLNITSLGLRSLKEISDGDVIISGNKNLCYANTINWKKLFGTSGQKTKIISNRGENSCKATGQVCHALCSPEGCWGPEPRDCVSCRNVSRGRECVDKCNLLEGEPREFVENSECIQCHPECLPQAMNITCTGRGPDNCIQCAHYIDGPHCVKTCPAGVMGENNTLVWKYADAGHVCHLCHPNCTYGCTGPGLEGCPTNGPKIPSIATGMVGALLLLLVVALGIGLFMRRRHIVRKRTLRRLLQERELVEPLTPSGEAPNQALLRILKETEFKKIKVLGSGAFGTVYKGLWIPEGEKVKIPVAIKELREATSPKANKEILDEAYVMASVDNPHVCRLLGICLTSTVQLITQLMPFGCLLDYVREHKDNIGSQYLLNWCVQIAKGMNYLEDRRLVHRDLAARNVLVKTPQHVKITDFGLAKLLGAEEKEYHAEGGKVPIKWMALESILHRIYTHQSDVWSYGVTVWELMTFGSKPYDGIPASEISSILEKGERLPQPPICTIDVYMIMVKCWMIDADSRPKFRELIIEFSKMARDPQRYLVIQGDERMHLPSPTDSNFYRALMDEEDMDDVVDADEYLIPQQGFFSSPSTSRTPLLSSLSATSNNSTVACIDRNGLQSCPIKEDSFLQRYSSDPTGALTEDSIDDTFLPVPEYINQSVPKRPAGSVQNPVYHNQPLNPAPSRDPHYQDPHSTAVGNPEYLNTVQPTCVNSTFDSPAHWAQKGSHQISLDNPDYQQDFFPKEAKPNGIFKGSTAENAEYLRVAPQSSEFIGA
T9 sequence (P49841 whole entry, species assumed): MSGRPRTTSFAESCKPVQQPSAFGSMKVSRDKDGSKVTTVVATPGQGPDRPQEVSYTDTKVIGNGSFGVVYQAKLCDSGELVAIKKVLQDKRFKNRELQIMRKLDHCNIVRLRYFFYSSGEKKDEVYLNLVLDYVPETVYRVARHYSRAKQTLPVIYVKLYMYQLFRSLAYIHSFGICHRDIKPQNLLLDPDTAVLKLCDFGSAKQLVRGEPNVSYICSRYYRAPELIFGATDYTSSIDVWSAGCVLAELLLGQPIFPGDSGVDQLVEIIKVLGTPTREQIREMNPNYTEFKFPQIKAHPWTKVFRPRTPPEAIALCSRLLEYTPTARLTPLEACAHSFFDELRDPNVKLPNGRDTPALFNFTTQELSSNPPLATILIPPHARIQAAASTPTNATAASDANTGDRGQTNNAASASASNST
T27 sequence (O00141 whole entry): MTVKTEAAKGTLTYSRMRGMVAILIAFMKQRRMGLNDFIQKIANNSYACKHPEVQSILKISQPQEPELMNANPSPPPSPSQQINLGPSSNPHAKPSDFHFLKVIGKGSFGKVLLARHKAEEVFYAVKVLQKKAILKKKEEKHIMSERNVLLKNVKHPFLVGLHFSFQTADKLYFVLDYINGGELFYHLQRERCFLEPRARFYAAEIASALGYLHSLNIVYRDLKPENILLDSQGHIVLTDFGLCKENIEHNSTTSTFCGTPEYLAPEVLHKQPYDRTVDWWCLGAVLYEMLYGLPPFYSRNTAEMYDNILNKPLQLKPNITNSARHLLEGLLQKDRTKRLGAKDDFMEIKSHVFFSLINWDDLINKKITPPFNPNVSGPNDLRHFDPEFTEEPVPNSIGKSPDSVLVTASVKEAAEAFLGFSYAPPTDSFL

**Q.** With `C[C@H]1CN(C(=O)CC#N)[C@]12CCN(c1ncnc3[nH]ccc13)C2` [JTE-052] as the compound, how does the IC50 [1] read?
**A.** > 1000 nM

**Q.** What about the IC50 [2] of the same compound?
**A.** > 1000 nM

**Q.** And the IC50 [3]?
**A.** > 1000 nM

**Q.** What about the IC50 [4] of the same compound?
**A.** > 1000 nM

**Q.** And the IC50 [5]?
**A.** > 1000 nM

**Q.** What about the IC50 [6] of the same compound?
**A.** > 1000 nM

**Q.** And the “inhibition of other kinases in KinaseProfiler” value [7]?
**A.** did not inhibit any of the kinases even at the concentration of 1,000 nM, except for ROCK-II

**Q.** What about the IC50 [8] of the same compound?
**A.** > 1000 nM

**Q.** What about the IC50 [9] of the same compound?
**A.** > 1000 nM

**Q.** And the IC50 [10]?
**A.** > 1000 nM

**Q.** What about the IC50 [11] of the same compound?
**A.** > 1000 nM

**Q.** And the IC50 [12]?
**A.** > 1000 nM

**Q.** And the IC50 [13]?
**A.** > 1000 nM

**Q.** What about the IC50 [14] of the same compound?
**A.** 277 ± 146 nM

**Q.** What about the IC50 [15] of the same compound?
**A.** > 1000 nM

**Q.** And the IC50 [16]?
**A.** > 1000 nM

**Q.** And the IC50 [17]?
**A.** > 1000 nM

**Q.** And the IC50 [18]?
**A.** > 1000 nM

**Q.** And the IC50 [19]?
**A.** > 1000 nM

**Q.** And the IC50 [20]?
**A.** > 1000 nM

**Q.** What about the IC50 [21] of the same compound?
**A.** > 1000 nM

**Q.** And the IC50 [22]?
**A.** > 1000 nM

**Q.** What about the IC50 [23] of the same compound?
**A.** 141 nM

**Q.** What about the IC50 [24] of the same compound?
**A.** > 1000 nM

**Q.** What about the ED50 ([25]; dosed 1 h prior to IL-2 injection) of the same compound?
**A.** 0.24 mg/kg

**Q.** What about the ED50 ([25]; dosed 6 h prior to IL-2 injection) of the same compound?
**A.** 1.3 mg/kg

**Q.** And the IC50 [26]?
**A.** > 1000 nM

**Q.** And the IC50 [27]?
**A.** > 1000 nM

**Q.** What about the IC50 [28] of the same compound?
**A.** > 1000 nM

**Q.** And the IC50 [29]?
**A.** > 1000 nM

**Q.** And the IC50 [30]?
**A.** > 1000 nM

**Q.** And the IC50 [31]?
**A.** 133 ± 18 nM

**Q.** And the IC50 [32]?
**A.** > 1000 nM

**Q.** What about the IC50 [33] of the same compound?
**A.** > 1000 nM

**Q.** What about the IC50 [34] of the same compound?
**A.** > 1000 nM

**Q.** And the IC50 at 3 days [35]?
**A.** > 10000 nM

**Q.** And the IC50 [36]?
**A.** > 1000 nM

**Q.** And the IC50 [37]?
**A.** > 1000 nM

**Q.** What about the IC50 [38] of the same compound?
**A.** > 1000 nM

**Q.** And the IC50 [39]?
**A.** > 1000 nM
